Measurements published in patent US20240425479A1, “HALO-SUBSTITUTED AMINO AZA-HETEROARYL COMPOUNDS AS INHIBITORS OF THE HAEMATOPOIETIC PROGENITOR KINASE 1 (HPK1)” (priority 2021, published 2024).

Target: T1, Recombinant (1-346) HPK1 (h) (Homo sapiens, UniProt Q92918)
T1 construct: Recombinant (1-346) HPK1 (h) is incubated with 8 mM MOPS pH 7.0
T1 sequence (Q92918 1-346): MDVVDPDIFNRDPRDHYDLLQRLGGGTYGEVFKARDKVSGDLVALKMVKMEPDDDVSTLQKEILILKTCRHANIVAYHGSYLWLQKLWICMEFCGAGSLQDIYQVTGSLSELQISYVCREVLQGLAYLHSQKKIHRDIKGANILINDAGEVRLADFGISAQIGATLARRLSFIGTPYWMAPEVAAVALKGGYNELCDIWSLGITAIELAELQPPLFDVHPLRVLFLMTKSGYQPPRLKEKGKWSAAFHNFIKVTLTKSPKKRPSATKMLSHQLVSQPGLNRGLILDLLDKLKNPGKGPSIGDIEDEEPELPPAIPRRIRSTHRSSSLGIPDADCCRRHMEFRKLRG
Assay: HPK1 human STE kinase enzymatic radiometric assay
Format: biochemical
Details: read-out: HPK1 IC50 nM Range
Description: (a) HPK1 Human STE Kinase Enzymatic Radiometric Assay
A stock solution of 10 mM of test compound is prepared in DMSO. The compound plate was prepared by 3-fold and 9-point serial dilutions. Recombinant (1-346) HPK1 (h) is incubated with 8 mM MOPS pH 7.0, 0.2 mM EDTA, 0.33 mg/mL myelin basic protein, 10 mM MgAcetate and [gamma-33P]-ATP (specific activity and concentration as required). The reaction is initiated by the addition of the Mg/ATP mix. After incubation for 40 minutes at RT, the reaction is stopped by the addition of phosphoric acid to a concentration of 0.5%, 10 μL of the reaction is then spotted onto a P30 filtermat and washed four times for 4 minutes in 0.425% phosphoric acid and once in methanol prior to drying and scintillation counting. For more details of kinase assay protocols, see: Gao, Y. et. al.; Biochem J.451 (2): 313-328, 2013.

Structure (SMILES)	IC50 [nM]
Cc1nc2cc(-c3nc(-c4ccc(N5CCN(CC6CC6)CC5)cc4)c(F)nc3N)ccc2c(=O)[nH]1 [Example I-79, 7-(3-amino-6-(4-(4-(cyclopropylmethyl)piperazin-1-yl)phenyl)-5-fluoropyrazin-2-yl)-2-methylquinazolin-4(3H)-one]	101 to 1000
Cc1nc2cc(-c3nc(-c4ccc(N5CCN(CCCC(F)F)CC5)cc4)c(F)nc3N)ccc2c(=O)[nH]1 [Example I-81, 7-(3-amino-6-(4-(4-(4,4-difluorobutyl)piperazin-1-yl)phenyl)-5-fluoropyrazin-2-yl)-2-methylquinazolin-4(3H)-one]	11 to 100
Nc1nc(F)c(-c2ccc(N3CCN(CCC(F)F)CC3)cc2)nc1-c1cc(F)c2c(c1)CCNC2=O [Example I-82, 6-(3-amino-6-(4-(4-(3,3-difluoropropyl)piperazin-1-yl)phenyl)-5-fluoropyrazin-2-yl)-8-fluoro-3,4-dihydroisoquinolin-1(2H)-one]	0.1 to 10
Nc1nc(F)c(-c2ccc(N3CCN(CC4CC4)CC3)cc2)nc1-c1ccc2c(=O)[nH]cc(F)c2c1 [Example I-84, 6-(3-amino-6-(4-(4-(cyclopropylmethyl)piperazin-1-yl)phenyl)-5-fluoropyrazin-2-yl)-4-fluoroisoquinolin-1(2H)-one]	0.1 to 10
Nc1nc(F)c(-c2ccc(N3CCN(CCC(F)F)CC3)cc2)nc1-c1ccc2c(=O)[nH]ccc2c1 [Example I-86, 6-(3-amino-6-(4-(4-(3,3-difluoropropyl)piperazin-1-yl)phenyl)-5-fluoropyrazin-2-yl)isoquinolin-1(2H)-one]	11 to 100
Cc1c[nH]c(=O)c2ccc(-c3nc(-c4ccc(N5CCN(CCC(F)F)CC5)cc4)c(F)nc3N)cc12 [Example I-87, 6-(3-amino-6-(4-(4-(3,3-difluoropropyl)piperazin-1-yl)phenyl)-5-fluoropyrazin-2-yl)-4-methylisoquinolin-1(2H)-one]	> 1000
CN(C)Cc1cc(-c2nc(-c3cc(F)c4c(c3)CCNC4=O)c(N)nc2F)ccc1N1CCOCC1 [Example I-88, 6-(3-amino-6-(3-((dimethylamino)methyl)-4-morpholinophenyl)-5-fluoropyrazin-2-yl)-8-fluoro-3,4-dihydroisoquinolin-1(2H)-one]	11 to 100
CN(C)Cc1cc(-c2nc(-c3ccc4c(=O)[nH]cc(F)c4c3)c(N)nc2F)ccc1N1CCOCC1 [Example I-89, 6-(3-amino-6-(3-((dimethylamino)methyl)-4-morpholinophenyl)-5-fluoropyrazin-2-yl)-4-fluoroisoquinolin-1(2H)-one]	0.1 to 10
CC(C)N1CCN(c2ccc(-c3nc(-c4cc(F)c5c(=O)[nH]cc(Cl)c5c4)c(N)nc3F)cc2)CC1 [Example I-90, 6-(3-amino-5-fluoro-6-(4-(4-isopropylpiperazin-1-yl)phenyl)pyrazin-2-yl)-4-chloro-8-fluoroisoquinolin-1(2H)-one]	0.1 to 10
C[C@@H]1CN(c2ccc(-c3nc(-c4ccc5c(=O)[nH]cc(F)c5c4)c(N)nc3F)cc2)C[C@H](C)N1C [Example I-93, 6-(3-amino-5-fluoro-6-(4-((3R,5S)-3,4,5-trimethylpiperazin-1-yl)phenyl)pyrazin-2-yl)-4-fluoroisoquinolin-1(2H)-one]	0.1 to 10
Cc1nc2cc(-c3nc(-c4ccc(N5C[C@@H](C)N(C)[C@@H](C)C5)cc4)c(F)nc3N)ccc2c(=O)[nH]1 [Example I-95, 7-(3-amino-5-fluoro-6-(4-((3R,5S)-3,4,5-trimethylpiperazin-1-yl)phenyl)pyrazin-2-yl)-2-methylquinazolin-4(3H)-one]	11 to 100
Nc1nc(F)c(-c2ccc([C@]34C[C@H]3CN(C3CCC3)C4)cc2)nc1-c1ccc2c(=O)[nH]cc(F)c2c1 [Example I-99, 6-(3-amino-6-(4-((1S,5R)-3-cyclobutyl-3-azabicyclo[3.1.0]hexan-1-yl)phenyl)-5-fluoropyrazin-2-yl)-4-fluoroisoquinolin-1(2H)-one]	0.1 to 10
Cc1[nH]c(=O)c2ccc(-c3nc(-c4ccc(N5CCOCC5)c(CN(C)C)c4)c(F)nc3N)cc2c1F [Example I-101, 6-(3-amino-6-(3-((dimethylamino)methyl)-4-morpholinophenyl)-5-fluoropyrazin-2-yl)-4-fluoro-3-methylisoquinolin-1(2H)-one]	0.1 to 10
Cc1[nH]c(=O)c2c(F)cc(-c3nc(-c4ccc(N5CCN(C(C)C)CC5)cc4)c(F)nc3N)cc2c1Cl [Example I-102, 6-(3-amino-5-fluoro-6-(4-(4-isopropylpiperazin-1-yl)phenyl)pyrazin-2-yl)-4-chloro-8-fluoro-3-methylisoquinolin-1(2H)-one]	0.1 to 10
Cc1[nH]c(=O)c2c(F)cc(-c3nc(-c4ccc(C5CCOCC5)c(CN(C)C)c4)c(F)nc3N)cc2c1Cl [Example I-104, 6-(3-amino-6-(3-((dimethylamino)methyl)-4-(tetrahydro-2H-pyran-4-yl)phenyl)-5-fluoropyrazin-2-yl)-4-chloro-8-fluoro-3-methylisoquinolin-1(2H)-one]	0.1 to 10
CN(C)Cc1cc(-c2nc(-c3ccc4c(c3)C3(CC3)CNC4=O)c(N)nc2F)ccc1N1CCOCC1 [Example I-105, 6′-(3-amino-6-(3-((dimethylamino)methyl)-4-morpholinophenyl)-5-fluoropyrazin-2-yl)-2′,3′-dihydro-1′H-spiro[cyclopropane-1,4′-isoquinolin]-1′-one]	0.1 to 10
Cc1[nH]c(=O)c2ccc(-c3nc(-c4ccc(N5CCN(CC6CC6)CC5)cc4)c(F)nc3N)cc2c1F [Example I-106, 6-(3-amino-6-(4-(4-(cyclopropylmethyl)piperazin-1-yl)phenyl)-5-fluoropyrazin-2-yl)-4-fluoro-3-methylisoquinolin-1(2H)-one]	0.1 to 10
Cc1[nH]c(=O)c2c(F)cc(-c3nc(-c4ccc(N5CCN(CC6CC6)CC5)cc4)c(F)nc3N)cc2c1Cl [Example I-107, 6-(3-amino-6-(4-(4-(cyclopropylmethyl)piperazin-1-yl)phenyl)-5-fluoropyrazin-2-yl)-4-chloro-8-fluoro-3-methylisoquinolin-1(2H)-one]	0.1 to 10
Nc1nc(F)c(-c2ccc(N3CCN(CC4CC4)CC3)cc2)nc1-c1ccc2c(c1)C1(CC1)CNC2=O [Example I-108, 6′-(3-amino-6-(4-(4-(cyclopropylmethyl)piperazin-1-yl)phenyl)-5-fluoropyrazin-2-yl)-2′,3′-dihydro-1′H-spiro[cyclopropane-1,4′-isoquinolin]-1′-one]	0.1 to 10
Cc1[nH]c(=O)c2c(F)cc(-c3nc(-c4ccc(N5CCOCC5)c(CN(C)C)c4)c(F)nc3N)cc2c1Cl [Example I-109, 6-(3-amino-6-(3-((dimethylamino)methyl)-4-morpholinophenyl)-5-fluoropyrazin-2-yl)-4-chloro-8-fluoro-3-methylisoquinolin-1(2H)-one]	0.1 to 10
Cc1[nH]c(=O)c2c(F)cc(-c3nc(-c4ccc(N5CCN(C(C)C)CC5)cc4)c(F)nc3N)cc2c1F [Example I-111, 6-(3-amino-5-fluoro-6-(4-(4-isopropylpiperazin-1-yl)phenyl)pyrazin-2-yl)-4,8-difluoro-3-methylisoquinolin-1(2H)-one]	0.1 to 10
Nc1nc(F)c(-c2ccc(N3CCOCC3)c(CN3CCCC3)c2)nc1-c1cc(F)c2c(c1)CCNC2=O [Example I-112, 6-(3-amino-5-fluoro-6-(4-morpholino-3-(pyrrolidin-1-ylmethyl)phenyl)pyrazin-2-yl)-8-fluoro-3,4-dihydroisoquinolin-1(2H)-one]	0.1 to 10
Nc1nc(F)c(-c2ccc(N3CCOCC3)c(CN3CCCC3)c2)nc1-c1ccc2c(=O)[nH]ccc2c1 [Example I-114, 6-(3-amino-5-fluoro-6-(4-morpholino-3-(pyrrolidin-1-ylmethyl)phenyl)pyrazin-2-yl)isoquinolin-1(2H)-one]	0.1 to 10
Cc1[nH]c(=O)c2c(F)cc(-c3nc(-c4ccc(N5CCN(CC6CC6)CC5)cc4)c(F)nc3N)cc2c1F [Example I-115, 6-(3-amino-6-(4-(4-(cyclopropylmethyl)piperazin-1-yl)phenyl)-5-fluoropyrazin-2-yl)-4,8-difluoro-3-methylisoquinolin-1(2H)-one]	0.1 to 10
Cc1[nH]c(=O)c2c(F)cc(-c3nc(-c4ccc(N5CCOCC5)c(CN(C)C)c4)c(F)nc3N)cc2c1F [Example I-116, 6-(3-amino-6-(3-((dimethylamino)methyl)-4-morpholinophenyl)-5-fluoropyrazin-2-yl)-4,8-difluoro-3-methylisoquinolin-1(2H)-one]	0.1 to 10
COC1CCN(Cc2cc(-c3nc(-c4cc5c(cc4F)C(=O)NCC5)c(N)nc3F)ccc2N2CCOCC2)CC1 [Example I-118, 6-(3-amino-5-fluoro-6-(3-((4-methoxypiperidin-1-yl)methyl)-4-morpholinophenyl)pyrazin-2-yl)-7-fluoro-3,4-dihydroisoquinolin-1(2H)-one]	11 to 100
